Source: patent publication US10973815B2, “Delta opioid agonist mu opioid antagonist compositions and methods for treating Parkinsons disease” (priority 2016, dated 2021)

Experiments:
[1] = tested on: MPTP-lesioned macaques with established motor complications; test: Monotherapy with DPI-289 in MPTP-lesioned macaques with established motor complications due to L-DOPA; type: in vivo, Macaca fascicularis
Experimental: This activity is measured by an infra-red movement detector and captures all movement, normal and abnormal. Data are mean±s.e.m. […] N=8 for all treatment groups. */**/*** represents P<0.05, P<0.01 or P<0.001 cf vehicle-treatment; 2-way RM ANOVA (FIG. 2A) or 1-way RM-ANOVA with Holm-Sidak's Multiple Comparison test (FIGS. 2B and C). […].
Parkinsonian disability is scored by a trained neurologist who is blinded to treatment allocation but is trained to differentiate normal from abnormal movements and is able to distinguish diminution of Parkinsonian disability from dyskinetic (abnormal) movements. Data are mean±s.e.m. […] N=8 for all treatment groups. */**/*** represents P<0.05, P<0.01 or P<0.001 cf. vehicle-treatment; 2-way RM ANOVA (FIG. 6A) or 1-way RM-ANOVA with Holm-Sidak's Multiple Comparison test (FIGS. 6 B and C).
Eight cynomolgus monkeys (Macaca fascicularis, 6.4-6.8 years of age, 2.8-4.2 kg were used in this study. Animals were housed two or three per cage in the same housing room. The housing rooms were subject to a 12 hour light-dark cycle (lights on 7 a.m.), temperature 20-25° C. in a room containing only animals of the same sex. Fresh fruit, primate pellets and water were available ad libitum other than at times of overnight fasting prior to PK or behavioral assessment days.
The animals were rendered parkinsonian via once-daily subcutaneous injection of MPTP (0.2 mg/kg), administered for between 9 and 12 days, until the appearance of parkinsonism symptoms. After this time, a parkinsonian syndrome reached a moderate to marked level, over approximately 30 days, and stabilized. […] L-DOPA naïve animals have received no L-DOPA and those showing established motor complication have received L-DOPA in an amount 25 mg/kg orally twice daily for at least 2 months. L-DOPA is given with the decarboxylase inhibitor benserazide (as Madopar™).

6-OHDA-lesioned rats = test: Rotations in unilateral 6-OHDA-lesioned rats; type: in vivo, rat
Text: N=6 rats per group, Newman-Keuls post hoc test was used for statistical significance.
N=8 per group, Newman-Keuls post hoc test for statistical significance.
In a rat model of PD, focal injection of the neurotoxin 6-hydroxydopamine (6-OHDA) was used to create a unilateral lesion of the nigrostriatal dopamine pathway. When challenged with dopamine agonists, rats rotate in the direction contralateral to the lesion and the number of rotations may be used as a measure of anti-parkinsonian efficacy.

[2] = Oral bioavailability in macaques; parameters: species or system Macaca fascicularis; details: cynomolgus monkey, in vivo
Text: ON-time represents lack of bradykinesia so mere improvement in bradykinesia would not be reflected in changes in ON-time. The oral bioavailability of the drug in these animals was only 1-2% so the lack of effect on ON-time is likely due to inadequate systemic exposure levels. Higher systemic levels of the drug may have a more profound effect on bradykinesia and which could translate into changes in ON-time.

Structure (SMILES): CCN(CC)C(=O)c1ccc(C(c2cccc(O)c2)N2C[C@@H](C)N(Cc3cccc(F)c3)C[C@@H]2C)cc1 (stereo partly drawn) [DPI-289, 4-((alpha-R)-alpha-((2S,5R)-2,5-Dimethyl-4-(3-fluorobenzyl)-1-piperazinyl)-3-hydroxybenzyl)-N,N-diethylbenzamide]
- bradykinesia ([1]; 20 mg/kg): significant change only in the first hour
- ON-time ([1]; 20 mg/kg oral): only limited on-time
- parkinsonian disability ([1]; 20 mg/kg, two to three hours after dosing): significant reduction in parkinsonian disability
- postural impairment ([1]; 1, 10 and 20 mg/kg, two to four hours after dosing): significant reduction in postural impairment
- range of movement ([1]; 1, 10 or 20 mg/kg, three to four hours after dose): increase in the range of movement
- alertness ([1]; 10 or 20 mg/kg, two to four hours after dosing): significant reduction in deficits in alertness
- dyskinesia ([1]; L-DOPA primed animals, 1, 10, 20 mg/kg): does not cause dyskinesia
- duration of effect on parkinsonian disability ([1]; single dose of 20 mg/kg): about 4 hours
- movement activity / motor impairment ([1]; single oral dose of 10 or 20 mg/kg): significantly alleviated motor impairment for 1 to 4 hours
- contralateral and ipsilateral rotations (6-OHDA-lesioned rats; 30 mg/kg): also increased rotations but the effect on contralateral rotations appeared to be diminished
- contralateral and ipsilateral rotations (6-OHDA-lesioned rats; 1-10 mg/kg i.p.): dose-related increase in both contralateral and ipsilateral rotations
- L-DOPA-induced contralateral rotations (6-OHDA-lesioned rats; co-administered with sub-optimal dose of L-DOPA (25 mg/kg i.p.)): marked potentiation of contralateral rotations
- bioavailability [2]: 1 to 2%
